System: Dkk1-LRP5-TCF-Luciferase
Experiment: Functional Dkk1-LRP5-TCF-Luciferase Assay in U2OS Cells
Details: for EC50 / fold induction at 2 µM / fold induction at 20 µM: Homo sapiens, U2OS; for fold induction at 2 µM: read-out: B = TCF ACTIVITY/DMSO CONTROL Fold induction @ 2.0 uM, 2.0 uM compound; for fold induction at 20 µM: read-out: C = TCF ACTIVITY/DMSO CONTROL Fold induction @ 20.0 uM, 20.0 uM compound; for A = MAX FOLD Induction/DMSO CONTROL: maximum fold induction over DMSO control
Method: Biological Evaluation—Functional Dkk1-LRP5-TCF-Luciferase Assay in U2OS Cells
Frozen U2OS-Dkk1-HTS Reporter cells generation: U2OS Human Bone derived cells (Osteosarcoma) are grown in McCoy's 5A Medium (Modified), with L -glutamine (GIBCO Cat No. 16600-082)+1% Pen-Strep+5% FBS) plated at 1×10^7 cells/T175 cm flask. The next day, the cells are co-transfected overnight with the following plasmids: (a) Test reporter (16×TCF-TK-FireFly-Luci), (b) Internal Control Reporter (TK-Renilla-Luci), (c) Wnt3a and (d) Dkk1. GIBCO's Lipofectamine 2000 and OptiMEM are used for the transfection. After a minimum of 4 hr of transfection at 37° C., the plasmid-transfected cells are trypsinized, counted, and suspended in freezing medium (95% FBS+5% DMSO). The reporter cells are frozen at 1×10^7/ml concentrations, aliquoted into 0.5 ml or 2.5 ml/tube and stored at 70° C.
The following day, test compounds are added under HTS setup by Plate Track into 384 well plates (white, TC treated, Falcon plate) such that the final concentration of the compounds in 20 μL/well cell will be 5 μg/ml (final concentration of DMSO=0.25% and final compound concentration=20 μM). Vials of frozen reporter cells are thawed by warming the vial in a 37° C. water bath for 60-120 seconds with some shaking until the cells formed a suspension. The thawed cells are transferred into a cold 50 ml (or larger) tube and mixed well by gentle pipetting. The appropriate amount of cold Phenol Red Free RPMI medium-1640 (GIBCO, Cat #11835-030) with L-glutamine is added, both with ˜5% FBS (GIBCO-BRL, Cat. #16000-044), so that 20 μl of the final cell suspension will contain ˜5,000 cells. The cell dilution is done such that the final concentration of FBS is ˜5%.
Diluted cells (20 μl) are added into each well in a 384 well plate. The plate is incubated at 37° C. under 5% CO2 for ˜20 h. Bright-Glo substrate, 2.5 μl/well is added, and the Fire Fly Luciferase is measured using VLUX (60 second exposure) immediately after the substrate is added. Test compounds are dissolved in DMSO (100%) and added to specified wells. Raw luciferase signal data obtained as relative luminescence units (RLUs) for the test compounds are normalized to the signal of the mean of the sample reporter cell plate with DMSO.

Row | EC50 | A = MAX FOLD Induction/DMSO CONTROL | SMILES | fold induction at 2 µM | fold induction at 20 µM
1 | 0.189 µM | 2.290 fold | O=C1CCCN1[C@H]1CCN(c2nccc(-c3ccc4ccccc4c3)n2)C1 [(3′S)-1′-[4-(2-naphthyl)pyrimidin-2-yl]-1,3′-bipyrrolidin-2-one] | 3.04 | 3.62
2 |  |  | c1ccc2cc(-c3ccnc(N4CC[C@H](N5CCCC5)C4)n3)ccc2c1 [(3′S)-1′-[4-(2-naphthyl)pyrimidin-2-yl]-1,3′-bipyrrolidine] | 1.45 | 0.83
3 |  |  | O=C1N[C@H](C2CCN(c3nccc(-c4ccc5ccccc5c4)n3)CC2)CO1 [(4R)-4-{1-[4-(2-naphthyl)pyrimidin-2-yl]piperidin-4-yl}-1,3-oxazolidin-2-one] | 1.4 | 0.01
4 |  | 1.585 fold | CC1(C)OC(=O)N[C@@H]1C1CCN(c2nccc(-c3ccc4ccccc4c3)n2)CC1 [(4R)-5,5-dimethyl-4-{1-[4-(2-naphthyl)pyrimidin-2-yl]piperidin-4-yl}-1,3-oxazolidin-2-one] | 1.98 | 1.39
5 | 2.68 µM | 5.433 fold | NCC1CCCN(c2nccc(-c3ccc4ccccc4c3)n2)C1 (stereo not shown) [({1-[4-(2-naphthyl)pyrimidin-2-yl]piperidin-3-yl}methyl)amine] | 2.9 | 0.005
6 | 1.98 µM | 3.390 fold | NCC1CCN(c2nccc(-c3ccc4ccccc4c3)n2)CC1 [({1-[4-(2-naphthyl)pyrimidin-2-yl]piperidin-4-yl}methyl)amine] | 2.23 | 0.143
7 |  |  | CC(C)C(=O)N(C)CCN(C)[C@@H]1CCN(c2nccc(-c3ccc4ccccc4c3)n2)C1 [N,2-dimethyl-N-[2-(methyl{(3R)-1-[4-(2-naphthyl)pyrimidin-2-yl]pyrrolidin-3-yl}amino)ethyl]propanamide] |  | 1.5
8 |  |  | CN(CCN(C)S(=O)(=O)N(C)C)[C@@H]1CCN(c2nccc(-c3ccc4ccccc4c3)n2)C1 [N,N,N′-trimethyl-N′-[2-(methyl{(3R)-1-[4-(2-naphthyl)pyrimidin-2-yl]pyrrolidin-3-yl}amino)ethyl]sulfamide] | 1.3 | 
9 |  |  | CN(C)CCN(C)[C@@H]1CCN(c2nccc(-c3ccc4ccccc4c3)n2)C1 [N,N,N′-trimethyl-N′-{(3R)-1-[4-(2-naphthyl)pyrimidin-2-yl]pyrrolidin-3-yl}ethane-1,2-diamine] | 2.4 | 
10 |  |  | CN(C)CCCN(C)[C@@H]1CCN(c2nccc(-c3ccc4ccccc4c3)n2)C1 [N,N,N′-trimethyl-N′-{(3R)-1-[4-(2-naphthyl)pyrimidin-2-yl]pyrrolidin-3-yl}propane-1,3-diamine] | 1.3 | 
11 |  |  | CN(C)CCN(C)[C@H]1CCN(c2nccc(-c3ccc4ccccc4c3)n2)C1 [N,N,N′-trimethyl-N′-{(3S)-1-[4-(2-naphthyl)pyrimidin-2-yl]pyrrolidin-3-yl}ethane-1,2-diamine] | 1.2 | 
12 |  |  | CN(C)CCCN(C)[C@H]1CCN(c2nccc(-c3ccc4ccccc4c3)n2)C1 [N,N,N′-trimethyl-N′-{(3S)-1-[4-(2-naphthyl)pyrimidin-2-yl]pyrrolidin-3-yl}propane-1,3-diamine] | 2 | 
13 | 28.2 µM | 3.680 fold | CCN(CC)C1CCN(c2nccc(-c3ccc4ccccc4c3)n2)C1 (stereo not shown) [N,N-diethyl-1-[4-(2-naphthyl)pyrimidin-2-yl]pyrrolidin-3-amine] | 1.06 | 2.67
14 |  | 1.260 fold | CCN(CC)c1nccc(-c2ccc3ccccc3c2)n1 [N,N-diethyl-4-(2-naphthyl)pyrimidin-2-amine] | 1.75 | 1.68
15 |  |  | CCN(CC)C(=O)N1CCC(CNc2nccc(-c3ccc4ccccc4c3)n2)CC1 [N,N-diethyl-4-({[4-(2-naphthyl)pyrimidin-2-yl]amino}methyl)piperidine-1-carboxamide] | 1.22 | 1.04

Reference: patent publication US20090054392A1, “NAPHTHYLPYRIMIDINE, NAPHTHYLPYRAZINE AND NAPHTHYLPYRIDAZINE ANALOGS AND THEIR USE AS AGONISTS OF THE WNT-BETA-CATENIN CELLULAR MESSAGING SYSTEM” (Wyeth, priority 2007, published 2009)
